Measurements from patent publication US8952024B2, “Herbicidal pyrimidone derivatives” (E I du Pont de Nemours and Company, priority 2009, dated 2015).
Read-outs that look alike come from different tables or passages of the source.

Columns and labels:
Assay type in all cases: in vivo
[1] = tested on: pigweed (Amaranthus retroflexus); assay: Test B pre-/postemergence plant response; details: for pest or weed control at 31 g/ha: 31 g ai/ha; for pest or weed control at 62 g/ha: 62 g ai/ha; for pest or weed control at 125 g/ha: 125 g ai/ha
Method in brief: (§1)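 Greenhouse herbicide screen. Pre- and postemergence (1- to 4-leaf) spray of compound in solvent/surfactant mixture; loam–sand soil for pre, peat/vermiculite medium for post. Visual control rating 0–100 at 13 to 15 days after treatment.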

[2] = tested on: ragweed (common ragweed, Ambrosia elatior); assay: Test B pre-/postemergence plant response; details: for pest or weed control at 31 g/ha: 31 g ai/ha; for pest or weed control at 62 g/ha: 62 g ai/ha; for pest or weed control at 125 g/ha: 125 g ai/ha
Method in brief: as §1

kochia (Kochia scoparia) = assay: Test B pre-/postemergence plant response; details: for pest or weed control at 31 g/ha: 31 g ai/ha; for pest or weed control at 62 g/ha: 62 g ai/ha; for pest or weed control at 125 g/ha: 125 g ai/ha
Method in brief: as §1

wild oat (Avena fatua) = assay: Test B pre-/postemergence plant response; details: for pest or weed control at 31 g/ha: 31 g ai/ha; for pest or weed control at 62 g/ha: 62 g ai/ha; for pest or weed control at 125 g/ha: 125 g ai/ha
Method in brief: as §1

[3] = tested on: chickweed (Stellaria media); assay: Test B postemergence plant response; details: Stellaria media, post-emergence, 360 h, Postemergence, read-out: Plant response rating, Chickweed
Method in brief: (§2)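 Plants grown in peat/vermiculite medium were sprayed postemergence at 2–18 cm height (1- to 4-leaf stage). After 13–15 days in the greenhouse, response was rated visually against untreated controls on a 0–100 scale (0 no effect, 100 complete control).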

[4] = tested on: windgrass (Apera spica-venti); assay: Test B postemergence plant response; details: Apera spica-venti, post-emergence, 360 h, Postemergence, read-out: Plant response rating, Windgrass
Method in brief: as §2

[5] = tested on: canarygrass (Phalaris minor); assay: Test B postemergence plant response; details: Phalaris minor, post-emergence, 360 h, Postemergence, read-out: Plant response rating, Canarygrass
Method in brief: as §2

[6] = Amaranthus retroflexus, pre-emergence, Preemergence, scale 0 to 100 (0 no effect, 100 complete control), read-out: Plant response rating, Pigweed
[7] = Preemergence, 250 g ai/ha, 0 to 100 scale
[8] = Ambrosia artemisiifolia, pre-emergence, 360 h, Preemergence, scale 0 to 100 (0 no effect, 100 complete control), read-out: Plant response rating, Ragweed
[9] = Bassia scoparia, pre-emergence, Preemergence, scale 0 to 100 (0 no effect, 100 complete control), read-out: Plant response rating, Kochia
[10] = Avena fatua, pre-emergence, Preemergence, scale 0 to 100 (0 no effect, 100 complete control), read-out: Plant response rating, Oat, Wild
[11] = 31 g ai/ha, 0 to 100 scale (0 no effect, 100 complete control)
[12] = 62 g ai/ha, scale 0 to 100 (0 no effect, 100 complete control)
[13] = 125 g ai/ha, scale 0 (no effect) to 100 (complete control), 13 to 15 days
[14] = 250 g ai/ha, scale 0 to 100 (0 no effect, 100 complete control), 13 to 15 days

## COCCn1c(-c2cc(F)cc(F)c2)ncc(C(=O)C2=C(O)C3CCC(C3)C2=O)c1=O (centres unmarked) [Compound 243, 2-(3,5-difluorophenyl)-5-[(2-hydroxy-4-oxobicyclo[3.2.1]oct-2-en-3-yl)carbonyl]-3-(2-methoxyethyl)-4(3H)-pyrimidinone]
[1]; Amaranthus retroflexus, post-emergence, Postemergence, 0 to 100 scale (0 no effect, 100 complete control), read-out: Plant response rating, Pigweed
  pest or weed control at 31 g/ha: 85%
[1]; Amaranthus retroflexus, post-emergence, Postemergence, scale 0 to 100 (0 no effect, 100 complete control), read-out: Plant response rating, Pigweed
  pest or weed control at 62 g/ha: 100%
[1]; Amaranthus retroflexus, post-emergence, Postemergence, scale 0 (no effect) to 100 (complete control), 13 to 15 days, read-out: Plant response rating, Pigweed
  pest or weed control at 125 g/ha: 100%
[1]; Amaranthus retroflexus, post-emergence, Postemergence, 250 g ai/ha, scale 0 to 100 (0 no effect, 100 complete control), 13 to 15 days, read-out: Plant response rating, Pigweed
  pest or weed control at 250 g/ha: 100%
[1]; [6]
  pest or weed control at 31 g/ha: 75%
  pest or weed control at 62 g/ha: 98%
[1]; Amaranthus retroflexus, pre-emergence, Preemergence, scale 0 to 100, 0 no effect, 100 complete control, read-out: Plant response rating, Pigweed
  pest or weed control at 125 g/ha: 100%
[1]; [7]
  Pigweed plant response rating: 100
[2]; Ambrosia artemisiifolia, post-emergence, 360 h, Postemergence, 0 to 100 scale (0 no effect, 100 complete control), read-out: Plant response rating, Ragweed
  pest or weed control at 31 g/ha: 90%
[2]; Ambrosia artemisiifolia, post-emergence, 360 h, Postemergence, scale 0 to 100 (0 no effect, 100 complete control), read-out: Plant response rating, Ragweed
  pest or weed control at 62 g/ha: 95%
[2]; Ambrosia artemisiifolia, post-emergence, 360 h, Postemergence, scale 0 (no effect) to 100 (complete control), 13 to 15 days, read-out: Plant response rating, Ragweed
  pest or weed control at 125 g/ha: 98%
[2]; Ambrosia artemisiifolia, post-emergence, 360 h, Postemergence, 250 g ai/ha, scale 0 to 100 (0 no effect, 100 complete control), 13 to 15 days, read-out: Plant response rating, Ragweed
  pest or weed control at 250 g/ha: 100%
[2]; [8]
  pest or weed control at 31 g/ha: 85%
  pest or weed control at 62 g/ha: 95%
[2]; Ambrosia artemisiifolia, pre-emergence, 360 h, Preemergence, scale 0 to 100, 0 no effect, 100 complete control, read-out: Plant response rating, Ragweed
  pest or weed control at 125 g/ha: 98%
[2]; [7]
  Ragweed plant response rating: 98
Kochia (Kochia scoparia); Bassia scoparia, post-emergence, Postemergence, 0 to 100 scale (0 no effect, 100 complete control), read-out: Plant response rating, Kochia
  pest or weed control at 31 g/ha: 85%
Kochia (Kochia scoparia); Bassia scoparia, post-emergence, Postemergence, scale 0 to 100 (0 no effect, 100 complete control), read-out: Plant response rating, Kochia
  pest or weed control at 62 g/ha: 95%
Kochia (Kochia scoparia); Bassia scoparia, post-emergence, Postemergence, scale 0 (no effect) to 100 (complete control), 13 to 15 days, read-out: Plant response rating, Kochia
  pest or weed control at 125 g/ha: 100%
Kochia (Kochia scoparia); Bassia scoparia, post-emergence, Postemergence, 250 g ai/ha, scale 0 to 100 (0 no effect, 100 complete control), 13 to 15 days, read-out: Plant response rating, Kochia
  pest or weed control at 250 g/ha: 100%
Kochia (Kochia scoparia); [9]
  pest or weed control at 31 g/ha: 15%
  pest or weed control at 62 g/ha: 20%
Kochia (Kochia scoparia); Bassia scoparia, pre-emergence, Preemergence, scale 0 to 100, 0 no effect, 100 complete control, read-out: Plant response rating, Kochia
  pest or weed control at 125 g/ha: 90%
Kochia (Kochia scoparia); [7]
  Kochia plant response rating: 100
Wild oat (Avena fatua); Avena fatua, post-emergence, Postemergence, 0 to 100 scale (0 no effect, 100 complete control), read-out: Plant response rating, Oat, Wild
  pest or weed control at 31 g/ha: 80%
Wild oat (Avena fatua); Avena fatua, post-emergence, Postemergence, scale 0 to 100 (0 no effect, 100 complete control), read-out: Plant response rating, Oat, Wild
  pest or weed control at 62 g/ha: 85%
Wild oat (Avena fatua); Avena fatua, post-emergence, Postemergence, scale 0 (no effect) to 100 (complete control), 13 to 15 days, read-out: Plant response rating, Oat, Wild
  pest or weed control at 125 g/ha: 85%
Wild oat (Avena fatua); Avena fatua, post-emergence, Postemergence, 250 g ai/ha, scale 0 to 100 (0 no effect, 100 complete control), 13 to 15 days, read-out: Plant response rating, Oat, Wild
  pest or weed control at 250 g/ha: 100%
Wild oat (Avena fatua); [10]
  pest or weed control at 31 g/ha: 30%
  pest or weed control at 62 g/ha: 85%
Wild oat (Avena fatua); Avena fatua, pre-emergence, Preemergence, scale 0 to 100, 0 no effect, 100 complete control, read-out: Plant response rating, Oat, Wild
  pest or weed control at 125 g/ha: 85%
Wild oat (Avena fatua); [7]
  Oat, Wild plant response rating: 90
[3]; [11]
  pest or weed control at 31 g/ha: 80%
[3]; [12]
  pest or weed control at 62 g/ha: 100%
[3]; [13]
  pest or weed control at 125 g/ha: 100%
[3]; [14]
  pest or weed control at 250 g/ha: 100%
[4]; [11]
  pest or weed control at 31 g/ha: 80%
[4]; [12]
  pest or weed control at 62 g/ha: 90%
[4]; [13]
  pest or weed control at 125 g/ha: 98%
[4]; [14]
  pest or weed control at 250 g/ha: 100%
[5]; [11]
  pest or weed control at 31 g/ha: 90%
[5]; [12]
  pest or weed control at 62 g/ha: 98%
[5]; [13]
  pest or weed control at 125 g/ha: 100%
[5]; [14]
  pest or weed control at 250 g/ha: 100%
